Like-named read-outs stand apart in the source and are kept apart here. Bridge positions count the residues as written; N and C are the ends. Square brackets hold non-standard residues; d marks the D form. Peptide text beside a SMILES is read from it. Cha = N[C@@H](CC1CCCCC1)C(=O)O; Ala(CN) = N#CC[C@H](N)C(=O)O; Nle = CCCC[C@H](N)C(=O)O; Pra = C#CC[C@H](N)C(=O)O
What was measured:
hNav1.7 = hNav1.7 (Homo sapiens, UniProt Q15858); test: cell-based; format: cell-based; settings: for IC50: PatchXpress, read-out: PX hNav1.7 Tonic IC50
Sequence of hNav1.7 (Q15858 whole entry): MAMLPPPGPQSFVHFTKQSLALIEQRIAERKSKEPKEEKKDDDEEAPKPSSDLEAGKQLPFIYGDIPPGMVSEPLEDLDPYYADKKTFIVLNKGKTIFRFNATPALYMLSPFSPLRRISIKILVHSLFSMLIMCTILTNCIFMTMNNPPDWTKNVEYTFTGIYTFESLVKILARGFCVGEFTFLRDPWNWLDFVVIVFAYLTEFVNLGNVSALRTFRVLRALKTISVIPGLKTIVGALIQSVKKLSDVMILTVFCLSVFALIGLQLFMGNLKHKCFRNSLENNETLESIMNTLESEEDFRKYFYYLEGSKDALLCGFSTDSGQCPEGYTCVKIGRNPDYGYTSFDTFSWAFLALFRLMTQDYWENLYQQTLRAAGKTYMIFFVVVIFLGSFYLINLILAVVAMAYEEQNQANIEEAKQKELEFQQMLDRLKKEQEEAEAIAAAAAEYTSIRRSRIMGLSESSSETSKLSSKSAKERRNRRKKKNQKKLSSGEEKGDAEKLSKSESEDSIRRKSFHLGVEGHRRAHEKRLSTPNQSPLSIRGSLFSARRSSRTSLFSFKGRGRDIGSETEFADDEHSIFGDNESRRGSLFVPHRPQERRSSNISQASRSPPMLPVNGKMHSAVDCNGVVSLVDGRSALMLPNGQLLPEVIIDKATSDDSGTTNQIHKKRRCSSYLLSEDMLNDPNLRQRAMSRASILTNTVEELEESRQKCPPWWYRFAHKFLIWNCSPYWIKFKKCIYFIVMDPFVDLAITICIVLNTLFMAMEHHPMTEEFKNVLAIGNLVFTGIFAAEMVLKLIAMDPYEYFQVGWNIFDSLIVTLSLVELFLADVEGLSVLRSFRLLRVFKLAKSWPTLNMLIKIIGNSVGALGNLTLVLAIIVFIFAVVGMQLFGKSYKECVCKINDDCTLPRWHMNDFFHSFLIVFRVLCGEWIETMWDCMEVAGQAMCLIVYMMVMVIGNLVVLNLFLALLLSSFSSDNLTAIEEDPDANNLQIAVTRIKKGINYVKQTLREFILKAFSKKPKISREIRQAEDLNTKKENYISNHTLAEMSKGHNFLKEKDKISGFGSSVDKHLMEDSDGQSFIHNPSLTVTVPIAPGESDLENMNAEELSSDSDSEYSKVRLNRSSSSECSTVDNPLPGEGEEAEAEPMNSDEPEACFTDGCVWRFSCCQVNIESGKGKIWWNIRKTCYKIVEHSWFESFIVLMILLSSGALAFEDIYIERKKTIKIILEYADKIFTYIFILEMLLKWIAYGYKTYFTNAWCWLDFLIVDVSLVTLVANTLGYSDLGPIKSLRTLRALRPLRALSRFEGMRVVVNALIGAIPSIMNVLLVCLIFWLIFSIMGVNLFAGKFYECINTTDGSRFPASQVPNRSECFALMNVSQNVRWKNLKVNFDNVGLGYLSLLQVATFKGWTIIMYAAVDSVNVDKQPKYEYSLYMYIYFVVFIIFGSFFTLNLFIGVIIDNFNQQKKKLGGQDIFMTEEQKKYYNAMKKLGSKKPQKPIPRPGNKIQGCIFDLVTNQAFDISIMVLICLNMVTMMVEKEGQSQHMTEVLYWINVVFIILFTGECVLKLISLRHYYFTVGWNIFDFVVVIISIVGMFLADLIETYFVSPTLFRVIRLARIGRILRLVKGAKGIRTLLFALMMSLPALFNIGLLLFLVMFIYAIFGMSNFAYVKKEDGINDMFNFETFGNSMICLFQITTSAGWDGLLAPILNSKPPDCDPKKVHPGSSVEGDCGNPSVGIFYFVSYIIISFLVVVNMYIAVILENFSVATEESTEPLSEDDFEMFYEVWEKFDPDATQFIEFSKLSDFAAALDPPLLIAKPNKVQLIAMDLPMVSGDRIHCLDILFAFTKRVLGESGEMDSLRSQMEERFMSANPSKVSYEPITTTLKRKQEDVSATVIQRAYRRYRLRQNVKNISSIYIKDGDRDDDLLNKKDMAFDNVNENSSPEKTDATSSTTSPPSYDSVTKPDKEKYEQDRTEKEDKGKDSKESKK

hNav1.4 = hNav1.4 (Homo sapiens, UniProt P35499); test: cell-based; format: cell-based; settings: for IC50: PatchXpress, read-out: PX hNav1.4 Tonic IC50; for Nav1.4/Nav1.7: ratio of PX tonic IC50 values
Sequence of hNav1.4 (P35499 whole entry): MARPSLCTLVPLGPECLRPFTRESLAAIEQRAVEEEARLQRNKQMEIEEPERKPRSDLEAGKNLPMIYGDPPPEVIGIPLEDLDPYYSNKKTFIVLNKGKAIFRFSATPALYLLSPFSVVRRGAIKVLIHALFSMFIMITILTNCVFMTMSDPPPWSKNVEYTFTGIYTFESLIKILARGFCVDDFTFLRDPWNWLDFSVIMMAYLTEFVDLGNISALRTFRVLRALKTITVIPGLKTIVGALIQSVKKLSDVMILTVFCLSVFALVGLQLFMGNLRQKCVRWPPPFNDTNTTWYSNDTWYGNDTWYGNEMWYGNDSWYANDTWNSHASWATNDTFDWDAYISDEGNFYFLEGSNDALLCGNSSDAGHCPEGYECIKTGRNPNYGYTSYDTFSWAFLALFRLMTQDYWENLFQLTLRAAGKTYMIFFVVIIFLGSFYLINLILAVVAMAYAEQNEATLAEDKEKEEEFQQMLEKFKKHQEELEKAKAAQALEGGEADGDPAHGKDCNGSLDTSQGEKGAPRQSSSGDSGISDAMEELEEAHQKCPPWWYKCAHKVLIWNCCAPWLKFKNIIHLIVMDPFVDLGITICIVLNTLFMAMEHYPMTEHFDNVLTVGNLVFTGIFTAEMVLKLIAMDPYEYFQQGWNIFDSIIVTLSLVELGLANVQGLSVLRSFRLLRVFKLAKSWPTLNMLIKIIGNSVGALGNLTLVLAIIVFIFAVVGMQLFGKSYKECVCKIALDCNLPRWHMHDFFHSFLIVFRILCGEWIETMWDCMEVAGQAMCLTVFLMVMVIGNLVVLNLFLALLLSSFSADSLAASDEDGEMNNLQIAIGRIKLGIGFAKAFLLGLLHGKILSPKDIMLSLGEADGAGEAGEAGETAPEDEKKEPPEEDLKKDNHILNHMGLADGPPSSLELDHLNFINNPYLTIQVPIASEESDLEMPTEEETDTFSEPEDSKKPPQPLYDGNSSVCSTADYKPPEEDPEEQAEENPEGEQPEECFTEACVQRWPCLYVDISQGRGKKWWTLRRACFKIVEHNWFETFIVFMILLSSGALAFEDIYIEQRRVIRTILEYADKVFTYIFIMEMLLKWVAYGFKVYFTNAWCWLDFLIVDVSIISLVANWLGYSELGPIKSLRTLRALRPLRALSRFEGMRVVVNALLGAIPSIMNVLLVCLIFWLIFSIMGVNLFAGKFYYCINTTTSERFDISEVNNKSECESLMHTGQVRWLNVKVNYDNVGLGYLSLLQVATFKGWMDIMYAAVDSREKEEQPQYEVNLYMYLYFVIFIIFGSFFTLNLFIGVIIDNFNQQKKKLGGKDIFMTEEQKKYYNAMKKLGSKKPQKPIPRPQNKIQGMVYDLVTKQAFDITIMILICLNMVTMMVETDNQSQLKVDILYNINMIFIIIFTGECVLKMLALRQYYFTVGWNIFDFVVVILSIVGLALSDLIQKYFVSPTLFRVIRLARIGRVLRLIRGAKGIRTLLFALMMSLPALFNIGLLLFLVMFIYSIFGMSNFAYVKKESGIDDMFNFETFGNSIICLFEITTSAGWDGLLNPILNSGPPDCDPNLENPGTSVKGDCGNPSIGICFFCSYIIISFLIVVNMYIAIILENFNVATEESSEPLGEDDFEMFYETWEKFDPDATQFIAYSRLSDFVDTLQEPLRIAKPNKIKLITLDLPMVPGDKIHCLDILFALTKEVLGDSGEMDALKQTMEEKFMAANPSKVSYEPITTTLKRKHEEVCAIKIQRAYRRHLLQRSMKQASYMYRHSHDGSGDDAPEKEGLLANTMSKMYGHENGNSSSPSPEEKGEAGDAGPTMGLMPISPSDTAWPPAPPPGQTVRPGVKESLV

| Structure (SMILES) | IC50 (hNav1.7; Table 12, tonic block) | IC50 (hNav1.4; Table 12, tonic block) | Nav1.4/Nav1.7 (hNav1.4; Table 12) | IC50 (hNav1.7; tonic, Table 11) | Nav1.4/Nav1.7 (hNav1.7; ratio of PX tonic IC50 values, Table 11) | IC50 (hNav1.4; tonic, Table 11) |
| --- | --- | --- | --- | --- | --- | --- |
| C#CC[C@H](N)C(=O)N[C@@H](Cc1ccc(O)cc1)C(=O)N[C@H]1CSSC[C@@H]2NC(=O)[C@@H]3CSSC[C@@H](C(=O)N[C@@H](CCCNC(=N)N)C(=O)N[C@@H](CCCCN)C(=O)N[C@H](C(=O)N[C@H](C(N)=O)[C@@H](C)CC)[C@@H](C)CC)NC(=O)[C@H](Cc4c[nH]c5ccccc45)NC(=O)[C@H](CC(C)C)NC(=O)[C@H](CCCCN)NC(=O)[C@H](CSSC[C@H](NC(=O)[C@H]([C@@H](C)O)NC(=O)[C@H](Cc4c[nH]c5ccccc45)NC(=O)[C@H](CCCC)NC(=O)[C@H](Cc4c[nH]c5ccccc45)NC(=O)[C@H](CCCCN)NC(=O)[C@H](CCC(N)=O)NC1=O)C(=O)N[C@@H](CC(=O)O)C(=O)N[C@@H](CO)C(=O)N[C@@H](CCC(=O)O)C(=O)N[C@@H](CCCNC(=N)N)C(=O)N[C@@H](C)C(=O)N3)NC(=O)[C@H](CCCNC(=N)N)NC(=O)[C@H](CC(C)C)NC(=O)CNC(=O)[C@H](CCCCN)NC2=O [compound 729] | 1.87 nM | 7.6 nM | 4 |  |  |  |
| C#CC[C@@H]1NC(=O)[C@@H]2CSSC[C@H](NC(=O)[C@H](CCC(=O)O)NC(=O)[C@@H](N)CC#N)C(=O)N[C@@H](CCC(N)=O)C(=O)N[C@@H](CCCCN)C(=O)N[C@@H](Cc3c[nH]c4ccccc34)C(=O)N[C@@H](CCCC)C(=O)N[C@@H](Cc3c[nH]c4ccccc34)C(=O)N[C@@H]([C@@H](C)O)C(=O)N[C@H]3CSSC[C@H](NC(=O)[C@H](CCCNC(=N)N)NC(=O)[C@H](CC(C)C)NC(=O)CNC1=O)C(=O)N[C@@H](CCCCN)C(=O)N[C@@H](CC(C)C)C(=O)N[C@@H](Cc1c[nH]c4ccccc14)C(=O)N[C@H](C(=O)N[C@@H](CCCNC(=N)N)C(=O)N[C@@H](CCCCN)C(=O)N[C@@H](CCC(=O)O)C(=O)N[C@@H](CC1CCCCC1)C(N)=O)CSSC[C@H](NC(=O)[C@H](C)NC(=O)[C@H](CCCNC(=N)N)NC(=O)[C@H](CCCCN)NC(=O)[C@H](CCC(=O)O)NC(=O)[C@H](CC(=O)O)NC3=O)C(=O)N2 [compound 869] (H-[Ala(CN)]ECQKW[Nle]WTCDEKRACC[Pra]GLRCKLWCRKE[Cha]-NH2; disulfide 3-17, 10-22, 16-26) | 0.95 nM | 294 nM | 311 |  |  |  |
| C#CC[C@H](N)C(=O)N[C@@H](Cc1ccc(O)cc1)C(=O)N[C@H]1CSSC[C@@H]2NC(=O)[C@@H]3CSSC[C@@H](C(=O)N[C@@H](CCCNC(=N)N)C(=O)N[C@@H](CCCCN)C(=O)N4CCC[C@H]4C(=O)N[C@H](C(N)=O)[C@@H](C)CC)NC(=O)[C@H](Cc4c[nH]c5ccccc45)NC(=O)[C@H](CC(C)C)NC(=O)[C@H](CCCCN)NC(=O)[C@H](CSSC[C@H](NC(=O)[C@H]([C@@H](C)O)NC(=O)[C@H](Cc4c[nH]c5ccccc45)NC(=O)[C@H](CCCC)NC(=O)[C@H](Cc4c[nH]c5ccccc45)NC(=O)[C@H](CCCCN)NC(=O)[C@H](CCC(N)=O)NC1=O)C(=O)N[C@@H](CC(=O)O)C(=O)N[C@@H](CO)C(=O)N[C@@H](CCCCN)C(=O)N[C@@H](CCCNC(=N)N)C(=O)N[C@@H](C)C(=O)N3)NC(=O)[C@H](CCCNC(=N)N)NC(=O)[C@H](CC(C)C)NC(=O)CNC(=O)[C@H](CCC(=O)O)NC2=O [compound 657] | 1.97 nM | 206 nM | 105 |  |  |  |
| C#CC[C@H](N)C(=O)N[C@@H](Cc1ccc(O)cc1)C(=O)N[C@H]1CSSC[C@@H]2NC(=O)[C@@H]3CSSC[C@@H](C(=O)N[C@@H](CCCNC(=N)N)C(=O)N[C@@H](CCCCN)C(=O)N[C@@H](CCC(=O)O)C(=O)N[C@H](C(N)=O)[C@@H](C)CC)NC(=O)[C@H](Cc4c[nH]c5ccccc45)NC(=O)[C@H](C4CCCCC4)NC(=O)[C@H](CCCCN)NC(=O)[C@H](CSSC[C@H](NC(=O)[C@H]([C@@H](C)O)NC(=O)[C@H](Cc4c[nH]c5ccccc45)NC(=O)[C@H](CCCC)NC(=O)[C@H](Cc4c[nH]c5ccccc45)NC(=O)[C@H](CCCCN)NC(=O)[C@H](CCC(N)=O)NC1=O)C(=O)N[C@@H](CC(=O)O)C(=O)N[C@@H](CO)C(=O)N[C@@H](CCCCN)C(=O)N[C@@H](CCCNC(=N)N)C(=O)N[C@@H](C)C(=O)N3)NC(=O)[C@H](CCCNC(=N)N)NC(=O)[C@H](CC(C)C)NC(=O)CNC(=O)[C@H](CCC(=O)O)NC2=O [compound 859] | 0.489 nM | 177 nM | 361 |  |  |  |
| C#CC[C@@H]1NC(=O)[C@@H]2CSSC[C@H](NC(=O)[C@@H](N)CC#N)C(=O)N[C@@H](CCC(N)=O)C(=O)N[C@@H](CCCCN)C(=O)N[C@@H](Cc3c[nH]c4ccccc34)C(=O)N[C@@H](CCCC)C(=O)N[C@@H](Cc3c[nH]c4ccccc34)C(=O)N[C@@H]([C@@H](C)O)C(=O)N[C@H]3CSSC[C@H](NC(=O)[C@H](CCCNC(=N)N)NC(=O)[C@H](CC(C)C)NC(=O)CNC1=O)C(=O)N[C@@H](CCCCN)C(=O)N[C@@H](CC(C)C)C(=O)N[C@@H](Cc1c[nH]c4ccccc14)C(=O)N[C@H](C(=O)N[C@@H](CCCNC(=N)N)C(=O)N[C@@H](CCCCN)C(=O)N[C@@H](CCC(=O)O)C(=O)N[C@H](C(N)=O)[C@@H](C)CC)CSSC[C@H](NC(=O)[C@H](C)NC(=O)[C@H](CCCNC(=N)N)NC(=O)[C@H](CCCCN)NC(=O)[C@H](CCC(=O)O)NC(=O)[C@H](CC(=O)O)NC3=O)C(=O)N2 [compound 1672] | 2.87 nM | 457 nM | 159 |  |  |  |
| C#CC[C@H](N)C(=O)N[C@@H](Cc1ccc(O)cc1)C(=O)N[C@H]1CSSC[C@@H]2NC(=O)[C@@H]3CSSC[C@@H](C(=O)N[C@@H](CCCNC(=N)N)C(=O)N[C@@H](CCCCN)C(=O)N[C@@H](CCC(=O)O)C(=O)N[C@H](C(N)=O)[C@@H](C)CC)NC(=O)[C@H](Cc4c[nH]c5ccccc45)NC(=O)[C@H](CC(C)C)NC(=O)[C@H](CCCCN)NC(=O)[C@H](CSSC[C@H](NC(=O)[C@H]([C@@H](C)O)NC(=O)[C@H](Cc4c[nH]c5ccccc45)NC(=O)[C@H](CCCC)NC(=O)[C@H](Cc4c[nH]c5ccccc45)NC(=O)[C@H](CCCCN)NC(=O)[C@H](CCC(N)=O)NC1=O)C(=O)N[C@@H](CC(=O)O)C(=O)N[C@@H](CO)C(=O)N[C@@H](CCC(=O)O)C(=O)N[C@@H](CCCNC(=N)N)C(=O)N[C@@H](C)C(=O)N3)NC(=O)[C@H](CCCNC(=N)N)NC(=O)[C@H](CC(C)C)NC(=O)CNC(=O)[C@H](CCCCN)NC2=O [compound 728] | 8.76 nM | 405 nM | 46 |  |  |  |
| CC[C@H](C)[C@H](NC(=O)[C@@H](NC(=O)[C@H](CCC(=O)O)NC(=O)[C@H](CCCNC(=N)N)NC(=O)[C@@H]1CSSC[C@@H]2NC(=O)[C@H](C)NC(=O)[C@H](CCCNC(=N)N)NC(=O)[C@H](CCCCN)NC(=O)[C@H](CO)NC(=O)[C@H](CC(=O)O)NC(=O)[C@@H]3CSSC[C@H](NC(=O)[C@H](CCCNC(=N)N)NC(=O)[C@H](CC(C)C)NC(=O)CNC(=O)[C@H](CCC(=O)O)NC(=O)[C@H](CSSC[C@H](NC(=O)[C@@H](N)Cc4ccc(O)cc4)C(=O)N[C@@H](CCC(N)=O)C(=O)N[C@@H](CCCCN)C(=O)N[C@@H](Cc4c[nH]c5ccccc45)C(=O)N[C@@H](CCSC)C(=O)N[C@@H](Cc4c[nH]c5ccccc45)C(=O)N[C@@H]([C@@H](C)O)C(=O)N3)NC2=O)C(=O)N[C@@H](CCCCN)C(=O)N[C@@H](CC(C)C)C(=O)N[C@@H](Cc2c[nH]c3ccccc23)C(=O)N1)[C@@H](C)CC)C(N)=O [compound 68] |  |  |  | 12.3 nM | 26 | 324 nM |
| C#CC[C@@H]1NC(=O)[C@@H]2CSSC[C@H](NC(=O)[C@H](Cc3ccc(O)cc3)NC(=O)[C@@H](N)CC#N)C(=O)N[C@@H](CCC(N)=O)C(=O)N[C@@H](CCCCN)C(=O)N[C@@H](Cc3c[nH]c4ccccc34)C(=O)N[C@@H](CCCC)C(=O)N[C@@H](Cc3c[nH]c4ccccc34)C(=O)N[C@@H]([C@@H](C)O)C(=O)N[C@H]3CSSC[C@H](NC(=O)[C@H](CCCNC(=N)N)NC(=O)[C@H](CC(C)C)NC(=O)CNC1=O)C(=O)N[C@@H](CCCCN)C(=O)N[C@@H](CC(C)C)C(=O)N[C@@H](Cc1c[nH]c4ccccc14)C(=O)N[C@H](C(=O)N[C@@H](CCCNC(=N)N)C(=O)N[C@@H](CCCCN)C(=O)N[C@@H](CCC(=O)O)C(=O)N[C@@H](CCc1ccccc1)C(N)=O)CSSC[C@H](NC(=O)[C@H](C)NC(=O)[C@H](CCCNC(=N)N)NC(=O)[C@H](CCCCN)NC(=O)[C@H](CO)NC(=O)[C@H](CC(=O)O)NC3=O)C(=O)N2 [compound 877] | 0.16 nM | 14.9 nM | 93 |  |  |  |
| C#CC[C@H](N)C(=O)N[C@@H](Cc1ccc(O)cc1)C(=O)N[C@H]1CSSC[C@@H]2NC(=O)[C@@H]3CSSC[C@@H](C(=O)N[C@@H](CCCNC(=N)N)C(=O)N[C@@H](CCCCN)C(=O)N[C@@H](CCC(=O)O)C(=O)N[C@H](C(N)=O)[C@@H](C)CC)NC(=O)[C@H](Cc4c[nH]c5ccccc45)NC(=O)[C@H]([C@@H](C)CC)NC(=O)[C@H](CCCCN)NC(=O)[C@H](CSSC[C@H](NC(=O)[C@H]([C@@H](C)O)NC(=O)[C@H](Cc4c[nH]c5ccccc45)NC(=O)[C@H](CCCC)NC(=O)[C@H](Cc4c[nH]c5ccccc45)NC(=O)[C@H](CCCCN)NC(=O)[C@H](CCC(N)=O)NC1=O)C(=O)N[C@@H](CC(=O)O)C(=O)N[C@@H](CO)C(=O)N[C@@H](CCCCN)C(=O)N[C@@H](CCCNC(=N)N)C(=O)N[C@@H](C)C(=O)N3)NC(=O)[C@H](CCCNC(=N)N)NC(=O)[C@H](CC(C)C)NC(=O)CNC(=O)[C@H](CCC(=O)O)NC2=O [compound 855] | 1.06 nM | 193 nM | 182 |  |  |  |
